Results: patent US20120276196A1, “Pharmaceutical Compositions of a Neuroactive Steroid and Methods of Use Thereof” (Euro-Celtique S.A., priority 2005, published 2012)

Key:
clinical = settings: male, human, in vivo
Description: (§1) The study is designed as an escalating single-dose, randomized, double-blind, placebo-controlled study in healthy adult male subjects.
(§2) The subjects will be monitored closely for safety and be tested using various pharmacodynamic measures during this phase. E.g. blood and urine samples will be collected for determination of the concentration of the active agent and its metabolites.
(§3) Pharmacokinetic samples will be analyzed after each cohort to examine the extent of drug exposure. Blood samples will be collected for determination of the active agent, its metabolites, and related substances at the following time-points: 0.25, 0.5, 1.0, 1.5, 2, 3, 4, 5, 6, 8, 10,12, 24, 30, 36, 48, 60, 72, 84 hr after dosing, and at End of Study. Up to 5 additional post-dosing blood sampling(s) may be performed and/or the timing of pharmacokinetic parameters draws may change if indicated after the analysis of blood samples from previous cohort(s). Samples will be collected after vital signs, pulse oximetry, and ECG are obtained.

[1] = human, in vivo, po
Description: as §1, §2, §3

[2] = escalating single-dose, randomized, double blind, placebo-controlled pharmacokinetic study, oral suspension, healthy male subjects; settings: human, plasma
Description: as §1, §2, §3

COC[C@@]1(O)CC[C@]2(C)C3CC[C@@]4(C)C(CC[C@@H]4C(=O)Cn4ccnc4)C3CC[C@H]2C1 (stereo partly drawn) [3α-hydroxy-3β-methoxymethyl-21-(1′-imidazolyl)-5α-pregnan-20-one]
Tmax (clinical): 1.5 to 5 h
Cmax (clinical; 1 mg): 0.001 to 0.0018 µg/mL
Cmax (clinical; 3 mg): 0.004 to 0.008 µg/mL
Cmax (clinical; 10 mg): 0.0169 to 0.0463 µg/mL
Cmax (clinical; 30 mg): 0.0956 to 0.154 µg/mL
Cmax (clinical; 60 mg): 0.218 to 0.479 µg/mL
Tmax (clinical; po): 1 to 3 h
half-life (clinical; po): ~12 h
Cmax (clinical; po, 1 mg): 0.0013 µg/mL
Tmax (clinical; po, 1 mg): 3.1 h
AUC(0-t) (clinical; po, 1 mg, AUC (0-24)): 0.0169 µg·h/mL
AUC(0-t) (clinical; po, 1 mg, AUC (0-last)): 0.0224 µg·h/mL
Cmax (clinical; po, 3 mg): 0.0057 µg/mL
Tmax (clinical; po, 3 mg): 2.8 h
half-life (clinical; po, 3 mg): 8.8 h
AUC(0-t) (clinical; po, 3 mg, AUC (0-24)): 0.0546 µg·h/mL
AUC(0-t) (clinical; po, 3 mg, AUC (0-last)): 0.0656 µg·h/mL
Cmax (clinical; po, 10 mg): 0.0265 µg/mL
Tmax (clinical; po, 10 mg): 1.7 h
AUC(0-t) (clinical; po, 10 mg, AUC (0-24)): 0.213 µg·h/mL
AUC(0-t) (clinical; po, 10 mg, AUC (0-last)): 0.254 µg·h/mL
Cmax (clinical; po, 30 mg): 0.12 µg/mL
Tmax (clinical; po, 30 mg): 2.1 h
AUC(0-t) (clinical; po, 30 mg, AUC (0-24)): 0.952 µg·h/mL
AUC(0-t) (clinical; po, 30 mg, AUC (0-last)): 1.12 µg·h/mL
Cmax (clinical; po, 60 mg): 0.33 µg/mL
Tmax (clinical; po, 60 mg): 1.8 h
AUC(0-t) (clinical; po, 60 mg, AUC (0-24)): 2.33 µg·h/mL
AUC(0-t) (clinical; po, 60 mg, AUC (0-last)): 2.61 µg·h/mL
Cmax levels between subjects [1]: variable
Cmax values versus dose [1]: greater than dose-proportional
half-life ([2]; 1 mg): 13.8 h
half-life ([2]; 10 mg): 13.1 h
half-life ([2]; 30 mg): 13.1 h
half-life ([2]; 60 mg): 12.5 h
